Patent publication US12673939B2, “Methods of synthesis of heteroaryl derivatives of triazolyl acrylamides and crystalline forms” (Karyopharm Therapeutics Inc., priority 2021, dated 2026)

Test: Dynamic vapor sorption (DVS) moisture sorption isotherm
Assay type: physicochemical
Details: reversible; from 0 to 90% RH; 25° C.
Description: The crystalline Form I provided can be additionally characterized by dynamic vapor sorption (DVS), wherein a sample is subjected to varying conditions of humidity and temperature, and the response of the sample is measured gravimetrically. The result of a DVS analysis particularly can be a dual curve providing sample weight percent as a function of relative humidity (RH) over time, a dual curve providing sample water content as a function of RH over time, a curve providing weight percent in relation to RH, or a curve providing water content in relation to RH. Equipment useful for measuring such data is known in the art, and any such equipment can be used to measure the compounds according to the present disclosure. In certain embodiments, DVS analysis can be carried out by scanning at a series of specific RH values. […]
Sorption isotherms were obtained using a SMS DVS Intrinsic moisture sorption analyser, controlled by DVS Intrinsic Control software v1.0.1.2 (or v 1.0.1.3). […] The relative humidity (RH) was measured by a calibrated Rotronic probe (dynamic range of 1.0-100% RH), located near the sample. The weight change, (mass relaxation) of the sample as a function of % RH was constantly monitored by the microbalance (accuracy±0.005 mg). […]
The sample was recovered after completion of the isotherm and re-analyzed by XRPD.

NC(=O)/C(=C/n1cnc(-c2cc(C(F)(F)F)cc(C(F)(F)F)c2)n1)c1cncnc1 [Crystalline Form I, (E)-3-(3-(3,5-bis(trifluoromethyl)phenyl)-1H-1,2,4-triazol-1-yl)-2-(pyrimidin-5-yl)acrylamide]
water adsorption (dynamic vapor sorption): 0.12 % w/w
